Test system: TNBS-induced colitis
Assay: TNBS-induced colitis in mice, oral dosing once a day Days 1-7
Format: in vivo, female SJL mice
Set-up: Disease Activity Index, Mean / Fecal Consistency, Mean: scale not given here
Conditions: for Colon Length, Mean / Colon Weight, Mean / Colon Weight/Length ratio, Mean: at euthanasia; for Histopathological severity score, Mean: colon H&E, score 0-4; for overall conclusion as compared to TNBS-vehicle (in words): oral
Experimental: Healthy young female SJL mice were used for the study. At the commencement of the study, the mice were between 8-9 weeks of age, weighing 20-22 g. All the mice were obtained from The Jackson Laboratory, Bar Harbor, Me. 04609 USA.
After seven days of acclimatization, mice were grouped according to their body weight. There was one group of ten mice and five groups of fifteen mice each. Five groups of fifteen mice each were challenged intra-rectally with 100 μl of 2.0% TNBS in 50% EtOH and other group of ten mice were challenged intra-rectally with 100 μl of 50% EtOH and serve as No-TNBS control. The experimental groups were as follows:
The mice were challenged intra-rectally with 100 μl of 2% TNBS in 50% ethanol under light anesthesia with ketamine/xylazine. The test compounds were administrated an hour prior to intra-rectal administration of TNBS as per scheduled daily dosing.
Vehicle and no-TNBS control groups received 0.5% CMC orally from Day 1 to Day 7.
Body Weight: The body weights were measured daily for 1-7 days using a laboratory balance.
Disease Activity Index: The clinical assessment of the mice was performed beginning Day 2 (a day after the intra-rectal administration of TNBS). The clinical assessment includes body weight, stool consistency and the presence of blood in the stools and scored according to Table 2.
Colon Length and Weight: the mice were euthanized using CO2 asphyxiation and colon from the colocecal junction to the anus was removed, washed and cleaned of all fecal matter using PBS. The colon length and weight were measured and then preserved in 10% NBF for histopathology.
Histopathology: Formalin fixed colon samples were submitted to affiliated histopathology laboratory for histopathological analysis subjected to hematoxylin and eosin (H & E) staining using standard techniques. Each colon was trimmed from both ends and mid. All three sections were stained and evaluated.
A board certified veterinarian pathologist assessed the presence of colitis and severity score according to the following criteria: • 0=no sign of inflammation • 1=very low level of inflammation • 2=low level of leukocytic infiltration, low level of inflammation • 3=high level of leukocytic infiltration, high vascular density, inflammation and thickening of colon wall • 4=transmural infiltration, loss of goblet cells, high vascular density, crypt abscesses, thickening of colon wall and ulceration.
The data is presented as the mean±standard error (SEM) obtained from Microsoft Excel or GraphPad Prism version 5.00 for Windows (GraphPad Software, San Diego Calif. USA). The data was analyzed using two-way ANOVA using Bonferroni post-test. Differences between groups were considered significant at p<0.05.

C[C@@H]([C@H](O)c1ccc(O)cc1)N1CCC(Cc2ccccc2)CC1 (racemic) [Ifenprodil, 4-[2-(4-benzylpiperidin-1-ium-1-yl)-1-hydroxypropyl] phenol; 2,3,4-trihydroxy-4-oxobutanoate]
Disease Activity Index vs TNBS-vehicle group (in words) (30 mg/kg): No significant differences | histopathology, cell morphological changes / severity (in words) (30 mg/kg PO QD (Table 1)): statistically significantly reducing cell morphological changes associated with disease | body weight change as compared to the TNBS-vehicle group (in words) (30 mg/kg po): significant improvement beginning on Day 4 | Percent Change in Body Weight, Mean (Day 1, 30 mg/kg PO QD): 0.00% | Percent Survivability (Day 1, 30 mg/kg PO QD): 100.000% | Disease Activity Index, Mean (Day 2, 30 mg/kg PO QD): 1.62 | Fecal Consistency, Mean (Day 2, 30 mg/kg PO QD): 1.00 | Occult Positivity, Mean (Day 2, 30 mg/kg PO QD): 1.86 | Percent Change in Body Weight, Mean (Day 2, 30 mg/kg PO QD): −9.38% | Percent Survivability (Day 2, 30 mg/kg PO QD): 93.000% | Disease Activity Index, Mean (Day 3, 30 mg/kg PO QD): 2.04 | Fecal Consistency, Mean (Day 3, 30 mg/kg PO QD): 1.71 | Occult Positivity, Mean (Day 3, 30 mg/kg PO QD): 2.14 | Percent Change in Body Weight, Mean (Day 3, 30 mg/kg PO QD): −11.31% | Percent Survivability (Day 3, 30 mg/kg PO QD): 93.000% | Disease Activity Index, Mean (Day 4, 30 mg/kg PO QD): 2.14 | Fecal Consistency, Mean (Day 4, 30 mg/kg PO QD): 2.00 | Occult Positivity, Mean (Day 4, 30 mg/kg PO QD): 2.62 | Percent Change in Body Weight, Mean (Day 4, 30 mg/kg PO QD): −9.44% | Percent Survivability (Day 4, 30 mg/kg PO QD): 86.600% | Disease Activity Index, Mean (Day 5, 30 mg/kg PO QD): 1.82 | Fecal Consistency, Mean (Day 5, 30 mg/kg PO QD): 1.67 | Occult Positivity, Mean (Day 5, 30 mg/kg PO QD): 2.33 | Percent Change in Body Weight, Mean (Day 5, 30 mg/kg PO QD): −7.64% | Percent Survivability (Day 5, 30 mg/kg PO QD): 80.000% | Disease Activity Index, Mean (Day 6, 30 mg/kg PO QD): 1.56 | Fecal Consistency, Mean (Day 6, 30 mg/kg PO QD): 1.33 | Occult Positivity, Mean (Day 6, 30 mg/kg PO QD): 2.00 | Percent Change in Body Weight, Mean (Day 6, 30 mg/kg PO QD): −6.68% | Percent Survivability (Day 6, 30 mg/kg PO QD): 80.000% | Disease Activity Index, Mean (Day 7, 30 mg/kg PO QD): 1.41 | Fecal Consistency, Mean (Day 7, 30 mg/kg PO QD): 1.17 | Occult Positivity, Mean (Day 7, 30 mg/kg PO QD): 1.83 | Percent Change in Body Weight, Mean (Day 7, 30 mg/kg PO QD): −6.23% | Percent Survivability (Day 7, 30 mg/kg PO QD): 80.000% | Colon Length, Mean (30 mg/kg PO QD Days 1-7): 8.93 cm | Colon Weight, Mean (30 mg/kg PO QD Days 1-7): 0.2145 g | Colon Weight/Length ratio, Mean (30 mg/kg PO QD Days 1-7): 24.5065 mg/cm | Histopathological severity score, Mean (30 mg/kg PO QD Days 1-7): 1.06 | overall conclusion as compared to TNBS-vehicle (in words) (30 mg/kg): showed improvement in colitis as well as in the loss of body weight, DAI, colon length, weight and weight/length ratio

O=C(Nc1ccc2[nH]c(=O)oc2c1)C(=O)N1CCC(Cc2ccc(F)cc2)CC1 [Radiprodil, 2-[4-[(4-fluorophenyl)methyl]piperidin-1-yl]-2-oxo-N-(2-oxo-3H-1,3-benzoxazol-6-yl)acetamide]
Disease Activity Index vs TNBS-vehicle group (in words) (30 mg/kg): No significant differences | histopathology, cell morphological changes / severity (in words) (30 mg/kg PO QD (Table 1)): reduced severity | body weight change as compared to the TNBS-vehicle group (in words) (30 mg/kg po): significant improvement beginning Day 4, with the exception of Day 3 | Percent Change in Body Weight, Mean (Day 1, 30 mg/kg PO QD): 0.00% | Percent Survivability (Day 1, 30 mg/kg PO QD): 100.000% | Disease Activity Index, Mean (Day 2, 30 mg/kg PO QD): 1.84 | Fecal Consistency, Mean (Day 2, 30 mg/kg PO QD): 1.20 | Occult Positivity, Mean (Day 2, 30 mg/kg PO QD): 2.00 | Percent Change in Body Weight, Mean (Day 2, 30 mg/kg PO QD): −10.51% | Percent Survivability (Day 2, 30 mg/kg PO QD): 100.000% | Disease Activity Index, Mean (Day 3, 30 mg/kg PO QD): 2.24 | Fecal Consistency, Mean (Day 3, 30 mg/kg PO QD): 1.33 | Occult Positivity, Mean (Day 3, 30 mg/kg PO QD): 2.53 | Percent Change in Body Weight, Mean (Day 3, 30 mg/kg PO QD): −13.08% | Percent Survivability (Day 3, 30 mg/kg PO QD): 100.000% | Disease Activity Index, Mean (Day 4, 30 mg/kg PO QD): 2.13 | Fecal Consistency, Mean (Day 4, 30 mg/kg PO QD): 1.23 | Occult Positivity, Mean (Day 4, 30 mg/kg PO QD): 2.46 | Percent Change in Body Weight, Mean (Day 4, 30 mg/kg PO QD): −10.35% | Percent Survivability (Day 4, 30 mg/kg PO QD): 86.670% | Disease Activity Index, Mean (Day 5, 30 mg/kg PO QD): 1.78 | Fecal Consistency, Mean (Day 5, 30 mg/kg PO QD): 1.00 | Occult Positivity, Mean (Day 5, 30 mg/kg PO QD): 2.33 | Percent Change in Body Weight, Mean (Day 5, 30 mg/kg PO QD): −8.29% | Percent Survivability (Day 5, 30 mg/kg PO QD): 80.000% | Disease Activity Index, Mean (Day 6, 30 mg/kg PO QD): 1.67 | Fecal Consistency, Mean (Day 6, 30 mg/kg PO QD): 1.00 | Occult Positivity, Mean (Day 6, 30 mg/kg PO QD): 2.17 | Percent Change in Body Weight, Mean (Day 6, 30 mg/kg PO QD): −7.58% | Percent Survivability (Day 6, 30 mg/kg PO QD): 80.000% | Disease Activity Index, Mean (Day 7, 30 mg/kg PO QD): 1.50 | Fecal Consistency, Mean (Day 7, 30 mg/kg PO QD): 1.00 | Occult Positivity, Mean (Day 7, 30 mg/kg PO QD): 1.83 | Percent Change in Body Weight, Mean (Day 7, 30 mg/kg PO QD): −6.95% | Percent Survivability (Day 7, 30 mg/kg PO QD): 80.000% | Colon Length, Mean (30 mg/kg PO QD Days 1-7): 8.42 cm | Colon Weight, Mean (30 mg/kg PO QD Days 1-7): 0.3095 g | Colon Weight/Length ratio, Mean (30 mg/kg PO QD Days 1-7): 37.7622 mg/cm | Histopathological severity score, Mean (30 mg/kg PO QD Days 1-7): 1.61 | overall conclusion as compared to TNBS-vehicle (in words) (30 mg/kg): showed improvement in colitis as well as in the loss of body weight, DAI, colon length, weight and weight/length ratio

Nc1ccc(O)c(C(=O)O)c1 [5-ASA, 5-Amino-2-hydroxybenzoic acid]
histopathology, cell morphological changes / severity (in words) (100 mg/kg PO QD (Table 1)): statistically significantly reducing cell morphological changes associated with disease | body weight change as compared to the TNBS-vehicle group (in words) (100 mg/kg po): significant improvement beginning on Day 4 | Percent Change in Body Weight, Mean (Day 1, 100 mg/kg PO QD): 0.00% | Percent Survivability (Day 1, 100 mg/kg PO QD): 100.000% | Fecal Consistency, Mean (Day 2, 100 mg/kg PO QD): 1.47 | Occult Positivity, Mean (Day 2, 100 mg/kg PO QD): 1.33 | Percent Change in Body Weight, Mean (Day 2, 100 mg/kg PO QD): −10.01% | Percent Survivability (Day 2, 100 mg/kg PO QD): 100.000% | Occult Positivity, Mean (Day 3, 100 mg/kg PO QD): 2.00 | Percent Change in Body Weight, Mean (Day 3, 100 mg/kg PO QD): −10.45% | Percent Survivability (Day 3, 100 mg/kg PO QD): 100.000% | Percent Change in Body Weight, Mean (Day 4, 100 mg/kg PO QD): −9.33% | Percent Survivability (Day 4, 100 mg/kg PO QD): 93.000% | Fecal Consistency, Mean (Day 5, 100 mg/kg PO QD): 1.38 | Occult Positivity, Mean (Day 5, 100 mg/kg PO QD): 2.15 | Percent Change in Body Weight, Mean (Day 5, 100 mg/kg PO QD): −7.81% | Percent Survivability (Day 5, 100 mg/kg PO QD): 86.670% | Fecal Consistency, Mean (Day 6, 100 mg/kg PO QD): 0.83 | Occult Positivity, Mean (Day 6, 100 mg/kg PO QD): 1.67 | Percent Change in Body Weight, Mean (Day 6, 100 mg/kg PO QD): −5.87% | Percent Survivability (Day 6, 100 mg/kg PO QD): 80.000% | occult positivity as compared to TNBS-vehicle (in words) (Day 7, 100 mg/kg): significant improvements | Fecal Consistency, Mean (Day 7, 100 mg/kg PO QD): 0.83 | Occult Positivity, Mean (Day 7, 100 mg/kg PO QD): 1.17 | Percent Change in Body Weight, Mean (Day 7, 100 mg/kg PO QD): −6.09% | Percent Survivability (Day 7, 100 mg/kg PO QD): 80.000% | Colon Length, Mean (100 mg/kg PO QD Days 1-7): 9.08 cm | Colon Weight, Mean (100 mg/kg PO QD Days 1-7): 0.2494 g | Histopathological severity score, Mean (100 mg/kg PO QD Days 1-7): 1.08 | overall conclusion as compared to TNBS-vehicle (in words) (100 mg/kg): showed improvement in the colitis, loss of body weight and disease activity index

Source: patent US20210290604A1, “COMPOUNDS FOR TREATMENT OF INFLAMMATORY BOWEL DISEASE AND METHODS THEREOF” (priority 2018, published 2021)
